“Also recorded” adds a separate entry of the source. Like-named read-outs stand apart in the source and are kept apart here.
Legend:
GCase [1] = target: T1, GCase (Homo sapiens (Human), UniProt P04062); assay: Fluorescence polarization assay; type: binding
Procedure: The fluorescent probe 3 (25 nL/well, 50 nM final concentration) was transferred to a 384-well black plate using a Labcyte Echo 550 Liquid Handler system. The 25 μL/well enzyme dilutions with GCase enzyme activity buffer were added to the plate, which was shaken at room temperature in dark for 20 min. The final titration was 5 nM to 10 μM, 10 concentrations, 2 times dilution. The fluorescence polarization was measured in Molecular Devices Analyst GT with Ex=535 nm and Em=580 nm, G Factor=1.05.

wild-type GCase [2] = target: T2, wild-type GCase (Homo sapiens (Human), UniProt P04062); assay: Fluorescence thermal shift analysis; type: binding; details: for stabilization of GCase (melting point change): pH 5.0, in words
Description: Compounds shown to act as pharmacological chaperones for GCase (or other lysosomal enzymes) also stabilize the enzyme against thermal denaturation. A fluorescent thermal shift assay was developed to evaluate the binding affinity of ligands with protein^30. […] The maximum thermal shift of these compounds corresponded to their inhibitory activity at pH 5.0.
A robotic pipeline in the High Throughput Analysis Laboratory (HTAL) was used for protein ligand screening by fluorescence thermal shift (FTS) analysis. The pipeline used a Mosquito robot (TTP Labtech) for protein dispensing and an Echo 550 (Labcyte) to add compounds. Thermal scanning coupled with fluorescence detection was performed on a real-time PCR machine CFX384 (Bio-Rad Laboratories). The assay was run in 384-well PCR plates, using 10 μL citric acid/K2HPO4 buffer (50 mM citric acid, 150 mM K2HPO4, pH 5.0) per well. The assay concentration for protein was 1 μM and that for Sypro Orange (Invitrogen) was 5×. Protein was premixed with Sypro Orange and dispensed to a plate first, and compounds were added. Final concentrations of compounds ranged from 0.5 to 200 μM. Then the plate was sealed with an optical seal, shaken, and centrifuged. The thermal scan was from 10 to 95° C. with a temperature ramp rate of 1.5° C./min. The fluorescence was recorded every 10 sec. Data analysis and report generation were performed using the in-house software excelFTS.

α-galactosidase A (GLA) = α-galactosidase A (GLA) (Homo sapiens (Human), UniProt P06280); assay: Enzyme selectivity assay, α-galactosidase A; type: biochemical; details: up to 100 μM
Description: (§1) Louis, Mo.). The recombinant wild-type GCase enzyme velaglucerase alfa ([…] Human Genetic Therapies, Inc.), acid α-glucosidase enzyme alglucosidase alfa (Lumizyme®, Genzyme Corporation), α-galactosidase A enzyme agalsidase beta (Fabrazyme®, Genzyme Corporation) were used in activity assays. […] The acid α-glucosidase and α-galactosidase A enzyme activity assay methods were similar to the GCase enzyme activity assay above with slight modifications.

acid α-glucosidase (GAA) = acid α-glucosidase (GAA) (Homo sapiens (Human), UniProt P10253); assay: Enzyme selectivity assay, acid α-glucosidase; type: biochemical; details: up to 100 μM
Description: as §1

wild-type GCase [3] = target: T2, wild-type GCase; assay: GCase enzyme activity assay (4MU-β-Glc, no taurocholate); type: biochemical
Procedure: In previous studies, high concentrations of taurocholate (4-10 mM) were used to improve the signal in GCase enzyme activity assays^16,27,28. […] Here we describe our modifications of the substituents on the quinazoline ring.
4-Methylumbelliferyl β-D-glucopyranoside (4MU-β-Glc), 4-methylumbelliferyl α-D-glucopyranoside,4-methylumbelliferyl α-D-galactopyranoside, and buffer components were purchased from Sigma-Aldrich (St. Louis, Mo.). The recombinant wild-type GCase enzyme velaglucerase alfa (Vpriv®, Shire Human Genetic Therapies, Inc.), acid α-glucosidase enzyme alglucosidase alfa (Lumizyme®, Genzyme Corporation), α-galactosidase A enzyme agalsidase beta (Fabrazyme®, Genzyme Corporation) were used in activity assays. […] A solution of 1 M sodium hydroxide and 1 M glycine (pH 10) was used as the stop solution for all three enzyme activity assays.
The compounds in DMSO solution (0.5 μL/well) were transferred to a black 96-well plate (the final titration started from 100 μM, a 12 or 24-point 2-fold dilution series). […] After 5 min of incubation at room temperature, the enzyme reaction was initiated by the addition of blue substrate (4MU-13-Glc) (33 μL/well). The final concentration of the blue substrate was 1.5 mM. The blue substrate reaction was terminated by the addition of 33 μL/well stop solution (1 M NaOH and 1 M glycine mixture, pH 10) after 30 min of incubation at 37° C. […] The selected compounds were further assayed under pH 5.0 and pH 7.0 to evaluate their selectivity under various pH conditions.

[4] = target: T3, N370S mutant GCase in patient fibroblasts (Homo sapiens (Human), UniProt P04062, N370S); assay: GCase protein level in N370S fibroblasts by Western blot; type: cell-based; details: 3 days treatment
Procedure: (§2) The N370S fibroblast cell line was obtained from Coriell, GM00372, cultured in DMEM medium (Life Tech) including 1% v/v L-glutamine 200 mM (Life Tech), 1% v/v pen strep (Life Tech), 10% FBS (Life Tech) at 37° C. and 5% CO2 and treated with different compounds at 0.2 μM and 2 μM. After a 3-day treatment, cells were washed with inhibitor free media 3 times and fed with inhibitor free media for 1 day, followed by 1% Triton X-100 lysis buffer to lyse cells. Protein concentrations were measured with a Bradford kit (Thermo), and the GCase activity was determined at pH 5.5.
Proteins were denatured in 20% SDS sample buffer at 100° C. for 10 min; 10% Bis-Tris gel (Life Tech) was used for gels; Trans-Blot Turbo PVDF kit (Bio-Rad) was used for membrane transfer, and Chemidoc MP system (Bio-Rad) was used to analyze the blots.

[5] = target: T3, N370S mutant GCase in patient fibroblasts; assay: GCase activity in N370S fibroblasts after compound treatment; type: cell-based; details: 3-day treatment
Procedure: as §2

GCase [6] = target: T1, GCase; assay: Enzyme kinetic assay (resorufin β-D-glucopyranoside); type: biochemical; details: substrate 30-150 μM
Procedure: We further tested compounds 4 and 11g by measuring GCase activity at various substrate concentrations (30-150 μM) and in the absence or presence of increasing concentrations of GCase inhibitors.
The substrate resorufin β-D-glucopyranoside was diluted to five concentrations, ranging from 30 to 150 μM. Seven concentrations of inhibitors (between 0.5- and 5-fold of IC50 value) and a DMSO control were added to the enzyme solution. The final enzyme concentration was 10 nM to give a linear reaction over 10 min. Enzyme kinetics were measured by the addition of 66 μL of substrate to a 96-well assay plate, followed by 33 μL of enzyme solution (with or without inhibitor) using a dispense module on a Biotek Synergy H1 multi-mode plate reader. The increase in product fluorescence was measured at 1 min intervals for 10 min in the plate reader. The rate of product formation was calculated by converting the fluorescence units to nanomoles of product per minute using a standard curve of the free fluorophore, resorufin.

[7] = pH 5.0, mean ± SD, read-out: IC50 pH 5.0
[8] = pH 7.0, mean ± SD, read-out: IC50 pH 7.0
[9] = pH 5.9, mean ± SD, read-out: IC50 pH 5.9

Sequence of α-galactosidase A (GLA) (P06280 32-429): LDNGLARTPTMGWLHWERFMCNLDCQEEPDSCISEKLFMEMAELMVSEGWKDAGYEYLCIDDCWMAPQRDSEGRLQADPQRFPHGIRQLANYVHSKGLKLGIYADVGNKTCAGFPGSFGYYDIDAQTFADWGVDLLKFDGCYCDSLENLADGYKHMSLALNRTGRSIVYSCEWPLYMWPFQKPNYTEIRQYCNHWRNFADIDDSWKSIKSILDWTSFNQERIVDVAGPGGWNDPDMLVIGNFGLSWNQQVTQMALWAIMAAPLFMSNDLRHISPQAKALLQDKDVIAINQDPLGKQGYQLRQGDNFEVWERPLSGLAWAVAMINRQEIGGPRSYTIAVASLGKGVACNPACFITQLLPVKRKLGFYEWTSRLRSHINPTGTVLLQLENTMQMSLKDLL
T3 sequence (P04062 40-536 N409S): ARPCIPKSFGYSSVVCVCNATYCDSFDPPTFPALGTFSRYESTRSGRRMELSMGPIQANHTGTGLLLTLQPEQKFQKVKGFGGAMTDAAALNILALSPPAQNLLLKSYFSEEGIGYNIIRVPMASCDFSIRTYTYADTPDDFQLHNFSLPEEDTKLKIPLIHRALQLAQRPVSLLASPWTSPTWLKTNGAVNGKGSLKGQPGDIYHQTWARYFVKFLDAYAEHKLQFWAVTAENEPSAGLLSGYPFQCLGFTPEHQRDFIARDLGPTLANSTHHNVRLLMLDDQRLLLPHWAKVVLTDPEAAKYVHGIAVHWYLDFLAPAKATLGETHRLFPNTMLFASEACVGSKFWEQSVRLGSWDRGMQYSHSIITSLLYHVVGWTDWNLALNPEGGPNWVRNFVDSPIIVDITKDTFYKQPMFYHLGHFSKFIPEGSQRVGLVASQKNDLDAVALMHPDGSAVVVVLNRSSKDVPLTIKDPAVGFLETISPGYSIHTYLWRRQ
T2 sequence (P04062 40-536): as the sequence (P04062 40-536 N409S) above, with S370N counted along it
T1 sequence (P04062 40-536): as the sequence (P04062 40-536 N409S) above, with S370N counted along it

## CN(C)c1ccc2c(-c3ccc(C(=O)NCCOCCOCCOCCOCCC(=O)NCCCCCC(=O)Nc4ccc(-c5nc(NC6Cc7ccccc7C6)c6ccccc6n5)cc4)cc3C(=O)O)c3ccc(=[N+](C)C)cc-3oc2c1 [compound 160]
GCase [1]
  Kd: 7.1 nM

## CN(C)c1ccc2c(-c3ccc(C(=O)NCCCCCC(=O)Nc4ccc(-c5nc(NC6Cc7ccccc7C6)c6ccccc6n5)cc4)cc3C(=O)O)c3ccc(=[N+](C)C)cc-3oc2c1 [compound 158]
GCase [1]
  Kd: 79 nM

## CN(C)c1ccc2c(-c3ccc(C(=O)NCCOCCOCC(=O)Nc4ccc(-c5nc(NC6Cc7ccccc7C6)c6ccccc6n5)cc4)cc3C(=O)O)c3ccc(=[N+](C)C)cc-3oc2c1 [compound 159]
GCase [1]
  Kd: 126 nM

## c1ccc(-c2nc(NC3Cc4ccccc4C3)c3ccccc3n2)cc1 [Compound 11d, N-(2,3-dihydro-1H-inden-2-yl)-2-phenylquinazolin-4-amine]
wild-type GCase [2]
  stabilization of GCase (melting point change): stabilize wild-type GCase in a dose-dependent manner; also recorded: increased the GCase melting point in a dose-dependent manner
α-galactosidase A (GLA)
  activity of α-galactosidase A on compound treatment: not significantly changed
Acid α-glucosidase (GAA)
  activity of acid α-glucosidase on compound treatment: not significantly changed
wild-type GCase [3]; Table 5, pH 5.9, mean ± SD, read-out: IC50
  IC50: 6.5 ± 0.7 nM
wild-type GCase [3]; [7]
  IC50: 10.5 ± 1.5 nM
wild-type GCase [3]; [8]
  IC50: 9.4 ± 1.4 nM
[4]
  concentration of GCase protein: significantly increased the concentration of GCase

## c1csc(-c2nc(NC3Cc4ccccc4C3)c3ccccc3n2)c1 [Compound 11f, N-(2,3-dihydro-1H-inden-2-yl)-2-(thiophen-2-yl)quinazolin-4-amine]
wild-type GCase [2]
  stabilization of GCase (melting point change): stabilize wild-type GCase in a dose-dependent manner; also recorded: increased the GCase melting point in a dose-dependent manner
α-galactosidase A (GLA)
  activity of α-galactosidase A on compound treatment: not significantly changed
Acid α-glucosidase (GAA)
  activity of acid α-glucosidase on compound treatment: not significantly changed
wild-type GCase [3]; [7]
  IC50: 13.9 ± 1.9 nM
wild-type GCase [3]; pH 5.0 vs pH 5.9
  decrease of inhibitory activity at pH 5.0 compared to pH 5.9: only dropped slightly
wild-type GCase [3]; [9]
  IC50: 8.2 ± 1 nM
wild-type GCase [3]; [8]
  IC50: 12.9 ± 2 nM
[4]
  concentration of GCase protein: significantly increased the concentration of GCase

## c1cncc(-c2nc(N[C@@H]3CCc4ccccc4C3)c3ccccc3n2)c1 [Compound 9b]
wild-type GCase [2]
  stabilization of GCase (melting point change): stabilize wild-type GCase in a dose-dependent manner; also recorded: increased the GCase melting point in a dose-dependent manner
α-galactosidase A (GLA)
  activity of α-galactosidase A on compound treatment: not significantly changed
Acid α-glucosidase (GAA)
  activity of acid α-glucosidase on compound treatment: not significantly changed
wild-type GCase [3]
  decrease of inhibitory activity at pH 5.0 compared to pH 5.9: 3 fold

## c1ccc2c(c1)CC(Nc1nc(-c3ccsc3)nc3ccccc13)C2 [Compound 11g, N-(2,3-dihydro-1H-inden-2-yl)-2-(thiophen-3-yl)quinazolin-4-amine]
wild-type GCase [2]; pH 5.0
  maximum thermal shift: around 11 °C
wild-type GCase [2]
  stabilization of GCase (melting point change): stabilize wild-type GCase in a dose-dependent manner; also recorded: increased the GCase melting point in a dose-dependent manner
α-galactosidase A (GLA)
  activity of α-galactosidase A on compound treatment: not significantly changed
[5]
  GCase activity in patient cells: increased GCase activity
Acid α-glucosidase (GAA)
  activity of acid α-glucosidase on compound treatment: not significantly changed
wild-type GCase [3]; [7]
  IC50: 8.9 ± 1.3 nM
wild-type GCase [3]; pH 5.0 vs pH 5.9
  decrease of inhibitory activity at pH 5.0 compared to pH 5.9: only dropped slightly
wild-type GCase [3]; [9]
  IC50: 5.2 ± 0.6 nM
wild-type GCase [3]; [8]
  IC50: 6.6 ± 1 nM
GCase [6]
  type of inhibition (Lineweaver-Burk): linear mixed inhibition
[4]
  concentration of GCase protein: significantly increased the concentration of GCase

## OC[C@H]1CNC[C@@H](O)[C@@H]1O [IFG, Isofagomine, reference compound]
wild-type GCase [2]
  stabilization of GCase (melting point change): stabilize wild-type GCase in a dose-dependent manner
[5]
  GCase activity in patient cells: had no effect
[4]
  concentration of GCase protein: did not have an effect

Source: patent US10167270B2, “Substituted quinazoline compounds and uses thereof for modulating glucocerebrosidase activity” (Northwestern University, priority 2015, dated 2019)
